Laboratory results from patent publication US20250144187A1, “COMBINATION OF HYDROLASES AND ANTI-MICROORGANISM DRUGS AND USES THEREOF” (CENTRE FOR EYE AND VISION RESEARCH LIMITED, priority 2023, published 2025).

What was measured:
[1] = system: MRSE; test: Time-killing curves, tedizolid phosphate/lysozyme; type: cell-based, Staphylococcus epidermis; settings: tedizolid phosphate + 0.5 mg/ml lysozyme, after 22 hours; dropping from the level of 10^12
[2] = system: MRSA; test: Mutation frequency and prevention concentration analysis, tedizolid phosphate/lysozyme
[3] = system: MRSA and MRSE biofilm; test: Biofilm crystal violet assay, tedizolid phosphate/lysozyme; type: cell-based; settings: tedizolid phosphate + 0.5 mg/ml lysozyme
Method: 4) Biofilm assays. According to previously described method [Thappeta, K. R. et al., ACS Infect. Dis. 6, 1228-1237(2020); Merritt, J. H. et al., Curr. Protoc. Microbiol. Chapter 1, Unit 1B.1 (2005); O'Toole, G. A. et al., J, Vis. Exp. 47, 2437 (2011)], biofilm was assessed by using an adherence assay on 96-well tissue culture plates. Briefly, tedizolid phosphate at final concentration of 0.3 μg/ml was added into bacterial suspensions (1×10^6 CFU/ml, in LB medium) in the absence or presence of 0.5 mg/ml lysozyme. LB medium with or without bacteria served as positive or negative control group, respectively. After overnight incubation at 37° C., the bacterial suspension was removed, and well was gently washed twice with sterile PBS to remove exclusively non-adherent bacteria. The adherent biofilm was fixed by using 95% methanol at 60° C. for 15 minutes. Then, biofilm was stained with 1% Crystal violet (100 μl/well) at 37° C. for 15 minutes, Ater that, all wells were gently washed with PBS to remove redundant crystal violet. Finally, the dye was solubilized with […] of 95% ethanol per well at 37° C. for 3 minutes. The optical density at 590 nm of solution in each well was measured using a micro-plate reader. Herein, strong biofilm, weak biofilm and no biofilm were defined as “[…]”, “ODnegative control<ODsample<2ODnegative control” and “ODsample≤ODnegative control”. […]

[4] = system: ocular bacterial communities in tears; test: Microbiome assay (16S rRNA) in ocular infection model; type: in vivo, C57BL/6 mice; settings: combination therapy; infected untreated ~3%, healthy 0.052%
[5] = system: MRSA; test: Check board broth micro-dilution assay, tedizolid phosphate with lysozyme; type: cell-based, Staphylococcus aureus; settings: for FICI: tedizolid phosphate + lysozyme
Method: 2) Check board broth micro-dilution assays. According to standard two-fold dilution method [Sun. H et al., Nat. Commun. 11, 5263 (2020) tedizolid phosphate at different concentrations were added into fresh LB medium (or trypticase soy troth medium with 5% defibrinated horse blood) containing different concentrations of human lysozyme in 96-well plate. Then, 20 μl of 1.0×10^7 CFU/ml logarithmic cultures of MRSA or MRSE were added into each well of the plate and co-incubated overnight. Drug-free LB medium in the absence or presence of bacteria served as background control and growth control group, respectively. […] Thus, there would be a series of FICI values. In most of cases, the lowest one among these values was listed to reflect the best achieving degree of combination therapy. In terms of the lowest FICI, FICI≤0.5, 0.5<FICI<1 or FICI≥1, would indicate the combination has synergy, part synergy or non-synergy effects, respectively.

[6] = system: alkaline phosphatase extracted from MRSA; test: Enzyme activity of alkaline phosphatase (in vitro hydrolysis of tedizolid phosphate); type: biochemical, Staphylococcus aureus; settings: enzyme from MRSA of the combination therapy group, after 1 hour
Method: 14) Enzyme activity of alkaline phosphatase. All enzyme activities of alkaline phosphatase were analyzed according to the modified method as previously described [Zhao, X.-y et al., Nature 46, 86-90 (2009); Zhang, XC e al., Anal. Chem. 92, 5185-5190 (2020); Rosch, J. & Caparon, M. Science 304, 1513-1151 (2004); Wang. W et al., PLoS One 10, e012403512013); Ghosh, S. S et al., Circ. Res. 128, 1646-1659 (2021)]. Briefly, mid-log-phase MRSA or MRSE was treated with lysozyme, tedizolid phosphate or their combination at different concentrations. Those without any treatment served as untreated group. After incubation at 37° C. for 1 hour, all samples were collected, washed by distilled water and re-suspended in distilled water to collect bacterial suspension with an initial density of about 5.0×10^12 CFU/ml according to pre-experiment. Then, sonication lysis for 40 minutes at 4° C. and centrifugation at 18,000 g at 4° C. for 20 minutes were performed to collect these supernatants. Next, 20 μl of each supernatant was incubated with 4 μg of tedizolid phosphate. […] These slides were visualized under fluorescence microscopy and randomly selected bacteria were analyzed at ×1,500 magnification. To quantify the enzyme activity, similar protocol was performed on cell lysis supernatant instead of above-described bacterial suspension. Finally, absorption spectrums (300-800 nm) were collected and analyzed. […]

Cn1nnc(-c2ccc(-c3ccc(N4C[C@H](COP(=O)(O)O)OC4=O)cc3F)cn2)n1 [tedizolid phosphate, Tedizolid Phosphate]
bacterial load per ml culture [1]: 10^6 colony forming units (CFUs) | mutation frequencies ([2]; combination with lysozyme): 2×10^−9 | prevention concentrations of tedizolid phosphate ([2]; combination with lysozyme): ≤ 1 µg/mL | mutation frequencies ([2]; without combination therapy): ≥ 5×10^−7 | prevention concentrations of tedizolid phosphate ([2]; without lysozyme): > 50 µg/mL | biofilm formation (absorbance at 590 nm), pre-biofilm stage [3]: biofilm was eliminated | proportion of Staphylococcus in tear bacterial communities [4]: ~0.078% | FICI ([5]; absence of urea-cycle inhibitors): 0.015 | FICI ([5]; cultures of both inhibitors): up to 0.25 | FICI ([5]; presence of BB-Cl-Amidine or acetohydroxamic acid): 0.1 | fractional inhibitory concentration index (FICI) ([5]; tedizolid phosphate and lysozyme): < 0.023 | tedizolid phosphate hydrolyzed [6]: up to 65%
